Experimental data reported in PMC10082216 (Nature Communications, 2023).
“And” between values parts separate entries of the source, which are not always exact repeats. Equal entries are not always repeated. “Also recorded” adds a separate entry of the source. Where two headings read alike, the source gives them in different places.

Key:
[1] = tested on: stage V gametocytes of P. falciparum (3D7 pULG8-GFP strain); assay: Post-screening validation with 96-well plate microsphiltration (Paris); format: cell-based, Plasmodium falciparum; settings: for confirmation of stiffening activity upon post-screening: DRA, 3D7, Paris laboratory; for retention 24 h after drug washout: 24 h exposure, remeasured additional 24 h after washout; for Normalized retention rate: gametocytes exposed 24 h
Description: Plasmodium falciparum NF54 strain parasites (used for screening campaign) were cultured at 4% hematocrit in RBCs from informed blood donors (blood group A) as previously described. Parasites were taken from the -80 °C freezer, then rapidly melt for 1 minute in a 37 °C water bath. A saline solution was gently added to avoid the lysis. Firstly, NaCl dissolved at 12% in distilled water (1/5 of the volume measured in the cryovial) and then NaCl dissolved at 1.6% (9 times the cryovial’s volume). After that, fresh RBCs were added to allow parasites re-growth. Infected RBCs were kept in RPMI medium (Sigma-Aldrich, cat. no. R4130), supplemented with 10% of decomplemented human serum, hypoxanthine 50 mg/l (Sigma-Aldrich, cat. no. H9636). Biobank of Castilla y Leon and Centro de Transfusiones de Madrid as providers of human red blood cell concentrates. The production of gametocytes was induced from a 0.5% ring-stage parasitemia (day 0). Medium was changed daily to induce gametocytes differentiation, as previously described. At day 17, gametocytes were concentrated using a density gradient medium (NycoPrep 1.077, Progen cat. no. 1114550)[27]. Parasitemia was adjusted by FACS (SYBR-Green and MitoTracker double staining, 3–5% targeted). Hematocrit was adjusted to 0.5% by adding fresh RBCs and controlled by manual counting in a Neubauer chamber (Celeromics, cat. no. 717810). Finally, the gametocyte suspension was poured (45 μL/well) into the compound-containing 384-well microplate, then incubated 24 hours both for the screening campaign and the dose-response analysis. Both asexual and sexual stages were cultivated in RPMI 1640 supplemented with 25 mM HEPES, 50 mg/L hypoxanthine, 50 μg/mL gentami-cin, 10% pooled heat-inactivated human serum (A^+). Each batch of serum was obtained by pooling 10 serum bags from different donors. Serum was kept at −20 °C and thawed in a warmed water bath before use. A new serum batch was prepared when the previous was completed. For dose-response analysis and microfluidics, both the 3D7-pULG8-GFP[67] and the NF54 strain (BEI Resources, cat. no. MRA-1000) were tested. The 3D7 strain was cultivated as described above with the addition of 0.2% NaHCO3 and 2.5 nM of WR99210 for both asexual and sexual stages.
Both fixed-dose and dose-response analyses were performed according to a second protocol (Paris laboratory) to validate the selected hits from primary screening. Briefly, the gametocyte suspension was loaded into a 96-well empty plate (200 µL/well). For each dose-response, first, well volume was doubled and compound was added to obtain 10 µM final concentration. For the dose-response analysis, the gametocyte suspension was then manually serially diluted 1/2 for 12 points, obtaining 5 nM as the lower concentration. The same operation was done with DMSO to have a negative control. After 24 hours of incubation at 37 °C, gametocyte suspensions were loaded into a 96-well filtration plate[28] and microsphiltration was manually performed at 37 °C. Up and downstream samples were incubated for 30 min with Hoechst 33342 nuclear staining (1/1000 diluted in PBS, Thermo Fischer cat. no. H3570), washed, resuspended in 200 µL of PBS and then loaded into an empty 96-well plate before FACSCanto (BD Biosciences, Franklin Lakes, New Jersey, USA) quantification. Data from cytofluorimetry were analyzed with FlowJo V12. As per previously described experiences with this technique, to avoid the risk of microbead layers saturation, a microsphiltration experiment was repeated when the upstream gametocytemia exceeded 10%[25],[69].

[2] = tested on: synchronized ring-stage P. falciparum 3D7-pULG8-GFP; assay: Dose-response analysis on asexual parasites, 3D7; format: cell-based; settings: Plasmodium falciparum
Description: (§1) Plasmodium falciparum 3D7-pULG8-GFP or NF54 strains were synchronized by sorbitol lysis. Rings were then diluted to 0.5% parasitemia and loaded into an empty 96-well plate (200 µL/well). First, well volume was doubled and compound was added to obtain 20 µM (TD-6450) and 500 nM (NITD609) final concentrations. The ring suspension was then manually serially diluted 1/2 for 12 points, obtaining 9.77 nM (TD-6450) and 0.24 nM (NITD609) as lowest concentrations. The same operation was done with DMSO to have a negative control. After 48 hours of incubation, the plates were centrifugated and RBC pellets were incubated for 30 min with Sybr-G (1/1000 diluted in PBS, Thermo Fisher cat. no. S7567). After PBS washing (2x), pellets were resuspended in 200 µL of PBS and parasitemia was quantified by FACSCanto and analyzed with FlowJo V12. IC50s were determined using GraphPad Prism 5.1 as mentioned. Images from optical microscopy were taken using a Leica inverted microscope and analyzed with Las X software.

[3] = tested on: synchronized ring-stage P. falciparum NF54; assay: Dose-response analysis on asexual parasites, NF54; format: cell-based, Plasmodium falciparum; settings: for IC50: Plasmodium falciparum, NF54, 48 h; for Parasitemia 1 / Parasitemia 2 / Parasitemia 3: NF54 ring stage
Description: as §1

[4] = read-out: Cmax in humans; at the lowest dose; ref not given; cited from earlier work
[5] = tested on: F32-TEM P. falciparum strain; assay: Resistance selection by TD-6450 drug pulses, dose-response on F32-TEM; format: cell-based, Plasmodium falciparum; settings: for Parental strain 1 (viability) / Parental strain 2 (viability) / Parental strain 3 (viability): No drug pulses; for IC50: Plasmodium falciparum
Description: To assess the ability of P. falciparum to develop resistance against TD-6450, we exposed F32-TEM line parasites, a reference artemisinin-sensitive P. falciparum strain[45], to the drug at 3 µM concentration for three days. We confirmed the absence of parasites on Giemsa-stained smears following exposure, then checked daily for parasite re-appearance in a drug-free culture flask.

[6] = tested on: stage V gametocytes of P. falciparum (3D7 pULG8-GFP strain); assay: Post-screening validation with 96-well plate microsphiltration (Paris); format: cell-based, Plasmodium falciparum; settings: eight-hour exposure
[7] = 3D7, 48 h, read-out: IC50, 3D7 strain (Fig. 5B)

Question: For COc1cc2c(cc1OC)[C@@H]1Cc3ccc(OC)c(OC)c3CN1CC2 [(S)-(-)-Tetrahydropalmatine], which “confirmation of stiffening activity upon post-screening” value ([1]; listed as L-THP) is on record?
Answer: The value was “not fully confirmed; also recorded: did not confirm”.

Question: Which results are given for C[C@H]1Cc2c([nH]c3cc(Cl)c(F)cc23)[C@@]2(N1)C(=O)Nc1ccc(Cl)cc12 [NITD609, cipargamin]?
Answer: retention 24 h after drug washout [1]: 23%; confirmation of stiffening activity upon post-screening [1]: confirmed; Normalized retention rate [1]: 66%; Retention rates (single wells, Figure 4b) ([1]; gametocytes exposed to drugs 24 h): 36.4701 and 62.0956 and 72.239; IC50 [2, 7]: 1.25 nM; IC50 ([3]; ring stage, red curves, read-out: IC50, NF54 strain (Fig. 5B)): 1.8 nM; Cmax [4]: 630 nM

Question: For CNC(=O)N1C[C@@H](C)N(c2ccc(C(=O)Nc3ccc(-c4ccc(-c5c[nH]c([C@@H]6CCCN6C(=O)[C@@H](NC(=O)OC)C(C)C)n5)cc4)c(OC(F)(F)F)c3)cn2)C[C@@H]1C [TD-6450], which “retention 24 h after drug washout” value [1] is on record?
Answer: The value was 43%.

Question: And the “confirmation of stiffening activity upon post-screening” value [1]?
Answer: Its value is “confirmed”.

Question: And the IC50 ([1]; Plasmodium falciparum, 3D7, 96-well, five independent experiments, read-out: stiffening IC50, median (±SD))?
Answer: The IC50 was 280 ± 580 nM.

Question: And the Normalized retention rate [1]?
Answer: Its Normalized retention rate is 27%.

Question: What about the “persistence of stiffening activity after drug washout” value ([1]; mature gametocytes) of the same compound?
Answer: The value was ≥ 24 h.

Question: What about the IC50 [2, 7] of the same compound?
Answer: The IC50 was 730 nM.

Question: What about the IC50 ([2]; 3D7, 2 experiments, 48 h, read-out: IC50 on asexual parasites, 3D7) of the same compound?
Answer: Its IC50 is 875 ± 205 nM.

Question: What about the “Parasitemia 1” value ([3]; 10 µM) of the same compound?
Answer: Its value is 0.14.

Question: What about the “Parasitemia 2” value ([3]; 10 µM) of the same compound?
Answer: The value was 0.17.

Question: What about the “Parasitemia 3” value ([3]; 10 µM) of the same compound?
Answer: Its value is 0.23.

Question: And the “Parasitemia 1” value ([3]; 20 µM)?
Answer: Its value is 0.2.

Question: And the “Parasitemia 2” value ([3]; 20 µM)?
Answer: The value was 0.18.

Question: What about the “Parasitemia 3” value ([3]; 20 µM) of the same compound?
Answer: The value was 0.2.

Question: What about the IC50 ([3]; 2 experiments, read-out: IC50 on asexual parasites, NF54) of the same compound?
Answer: The IC50 was 1330 ± 230 nM.

Question: What about the IC50 ([3]; ring stage, blue curves, read-out: IC50, NF54 strain (Fig. 5B)) of the same compound?
Answer: Its IC50 is 1170 nM.

Question: What about the “Parental strain 1 (viability)” value ([5]; 5 µM) of the same compound?
Answer: The value was 1.88.

Question: What about the “Parental strain 2 (viability)” value ([5]; 5 µM) of the same compound?
Answer: Its value is 1.225.

Question: What about the “Parental strain 3 (viability)” value ([5]; 5 µM) of the same compound?
Answer: Its value is 1.766.

Question: And the “Parental strain 1 (viability)” value ([5]; 10 µM)?
Answer: The value was 1.472.

Question: And the “Parental strain 2 (viability)” value ([5]; 10 µM)?
Answer: The value was 0.6944.

Question: What about the “Parental strain 3 (viability)” value ([5]; 10 µM) of the same compound?
Answer: Its value is 1.083.

Question: What about the “Parental strain 1 (viability)” value ([5]; 20 µM) of the same compound?
Answer: The value was 1.826.

Question: What about the “Parental strain 2 (viability)” value ([5]; 20 µM) of the same compound?
Answer: Its value is 0.509.

Question: And the “Parental strain 3 (viability)” value ([5]; 20 µM)?
Answer: The value was 0.9281.

Question: What about the IC50 ([5]; F32, read-out: IC50, F32-TEM 5 pulses) of the same compound?
Answer: The IC50 was 700 nM.

Question: And the IC50 ([5]; F32, read-out: IC50, F32-TEM 10 pulses)?
Answer: The IC50 was 300 nM.

Question: What about the IC50 ([5]; F32, read-out: IC50, F32-TEM P.S.) of the same compound?
Answer: Its IC50 is 200 nM.

Question: And the “fold shift in IC50” value ([5]; after five drug-killing pulses (3 µM, three days))?
Answer: Its value is 3.5 fold.

Question: And the “fold shift in IC50” value ([5]; after ten drug-killing pulses (3 µM, three days))?
Answer: Its value is 1.5 fold.

Question: And the “concentration that significantly stiffens mature gametocytes” value [6]?
Answer: Its value is 200 nM.
